# Assay: Mean group body weight in the rat MIA study
# Format: in vivo, Rat Ola Wistar
# Conditions: morphine 10 mg/kg SC, mAbs 8 mg/kg SC
# Text: Mean group body weight for all groups (g).
structure (smiles),measurement,value
CN1CC[C@]23c4c5ccc(O)c4O[C@H]2[C@@H](O)C=C[C@H]3[C@H]1C5 [Morphine],"Mean group body weight, Baseline",178.5 g
same,"Mean group body weight, Day 7",256.2 g
same,"Mean group body weight, Day 14",285.1 g
same,"Mean group body weight, Day 21",300.6 g
same,"Mean group body weight, Day 27",316 g

# Source: US9951128B2, “Caninized anti-NGF antibodies and methods thereof” (ZOETIS SERVICES LLC, priority 2012, dated 2018)
